Consider one compound from US12673038B2, “Antimycotic methoxyflavone and fluconazole combination for inhibiting cryptococcus” (Karl-Franzens-Universität Graz, priority 2019, dated 2026).

In brackets after ≈: the same amount, converted by molar mass.

The test system of one assay is S. cerevisiae BY4741. Kind of assay: Clonogenic survival assay (CFU plating). The note with it: 200 μM 5-MF, day 3 after treatment, untreated control 100%. Format: cell-based, Saccharomyces cerevisiae. As for the experimental part: S. cerevisiae BY4741 cells were grown in SMD minimal media to mid-log phase and then treated with the indicated concentrations of 5-MF; control cells were treated with the same amount of solvent (DMSO). (A) Clonogenicity was assayed by plating 500 cells on YPD agar plates and colony forming units (CFUs) were counted to calculate survival rates. (B) Yeast cells were analyzed for cell death markers via AnnV/PI co-staining using flow cytometry. (C) The accumulation of reactive oxygen species was monitored by dihydrotethidium (DHE) to ethidium (Eth) conversion using flow cytometry. Assays in (A-C) were performed on day 3 after treatment. […] Data was analyzed by one-way ANOVA and corrected for multiple comparison using a Bonferroni post-hoc test. ns: not significant, * p<0.05, *** p<0.001, **** p<0.0001. […] Yeast strains were streaked on YPD agar plates and allowed to grow for two days at 28° C. or 30° C., plates were then stored for up to one week at 4° C. […] Survival upon treatment with substances or combinations was analyzed by plating serial dilutions of treated cultures onto YPD agar plates. Plates were incubated for two days at 28° C., colony forming units (CFUs) were counted and survival was calculated compared to the untreated control.

Assay [1] deals with C. albicans SC5314. Kind of assay: MIC determination, CLSI protocol M27-A3, OD490. The format is cell-based, Candida albicans. The note with it: C. albicans SC5314, 50 μM 5-MF, untreated control 100%.
The next assay concerns C. glabrata BG2. Briefly: MIC determination, CLSI protocol M27-A3, OD490. The format is cell-based, Candida glabrata. The note with it: Nakaseomyces glabratus; C. glabrata BG2 planktonic growth, mean±SEM.
The subject of assay [2] is C. albicans SC5314 biofilms. Briefly: Biofilm inhibition concentration (BIC), CTB staining. Format: cell-based. To be noted: Candida albicans, C. albicans SC5314 biofilm formation, mean±SEM, read-out: BIC-50.
The test system of a further assay is C. glabrata BG2 biofilms. Kind of assay: Biofilm inhibition concentration (BIC), XTT staining. To be noted: Nakaseomyces glabratus, BG2BIOFILMS, C. glabrata BG2 biofilm formation, mean±SEM, read-out: BIC-50. The format is cell-based, Candida glabrata.
Assay [3] concerns C. albicans SC5314. Briefly: C. elegans infection model for C. albicans infection. Format: in vivo, Caenorhabditis elegans. To be noted: C. elegans Δglp-4 Δsek-1 infected with C. albicans. Here is the method: Survival curves of non-infected (ui ctrl.) and infected (i ctrl.) nematodes treated or not with 5-MF are shown in (A), and the survival of living nematodes on day 5 is shown in (B). Synchronized C. elegans Δglp-4 Δsek-1 larvae were infected at the L4 stage as previously described (Delattin N, et al., Antimicrob Chemother. 69(2014): 1035-1044). 35-50 infected worms were then suspended in 750 μL growth medium (M9 buffer supplemented with 10 mg/L cholesterol, 100 mg/L kanamycin and 75 mg/L ampicillin) in separate wells of a 24-well plate with at least 3 wells for each condition. Worms were treated with 200 μM 5-MF or the corresponding volume of solvent (i ctrl) immediately after infection (single application). Worm survival was monitored daily over the period of five days. Additionally, the survival of non-infected worms (ui ctrl) was monitored as a control. […] In (B), worm survival is expressed as the percentage of viability at day 5 compared to day 0, with data analyzed using one-way ANOVA and corrected for multiple comparison using a Bonferroni post-hoc test. ** p<0.01, **** p<0.0001. […]
For efficacy testing of compounds, 750 μL of the worm suspension were transferred into each well of a 24-well plate and substances were added at indicated concentrations (1% DMSO). Nematodes were immediately counted (t0) and survival was monitored over five days post infection by counting living worms. […]

The test system of a further assay is Candida albicans. To be noted: according to CN 105 669 625 A; cited from earlier work.

What is called MIC50 is the lowest concentration that inhibits either 50% of growth or 50% of the strains tested, depending on the study. High values mean lower susceptibility, low ones higher susceptibility.

In the case of `COc1cccc2oc(-c3ccccc3)cc(=O)c12` [5-MF, 5-methoxyflavone], in the assay on S. cerevisiae BY4741, the “yeast survival (clonogenic assay, CFUs)” value is listed as 31%. For the same compound, in the assay with C. albicans SC5314 [1], the “growth of planktonic cells compared to untreated cells” value was “about 60%”. In addition, the MIC50 in the assay on C. glabrata BG2 was 202 ± 35.6 µM (≈ 50.9 µg/mL). Moreover, the IC50 in assay [2] stood at 216 ± 26.6 µM; in the assay with C. glabrata BG2 biofilms it was 224 ± 15.6 µM. The “worms alive at day 5 post infection” value with C. albicans SC5314 [3] (200 μM 5-MF single application, infected control 20.6%) is 42.9%. The “nematode survival over 5 days post infection” value with C. albicans SC5314 [3] (compared to infected control) is recorded as “prolonged protection”. Also, in the assay on Candida albicans, the “synergistic antifungal effect with fluconazole” value was “does not show such synergistic effect”.
